Assays:
[1] = Intraduodenal bioavailability of zanamivir from glycerol and PBS formulations, enhancer pre-dose (Example 6); settings: male, Sprague-Dawley, rat, in vivo, 1.5 mg/animal, Plasma concentration, ID 1.5 mg/animal
Description: (§1) Male Sprague-Dawley rats (Hilltop Labs), 3 animals per treatment group, 250-350 grams in weight, were fitted with a jugular vein cannula (JVC). Animals intended for intraduodenal dosing were also fitted with one or more intraduodenal cannula (IDC) and those intended for intravenous dosing were fitted with a second JVC. Food was withheld from the animals for a minimum of twelve hours prior to test article administration and was returned approximately four hours post-dose. Water was supplied ad libitum.
(§2) Intraduodenal doses composed of 1.5 mg of zanamivir and varying amounts of an enhancer (glycerol or Capmul MCM L8) were injected directly into the duodenum via the IDC. Intravenous dosing was conducted by the injection of 1.5 mg of zanamivir in 200 μL of PBS through a JVC. For some experiments, the absorption enhancer was administered intraduodenally 2 hr prior to administering 1.5 mg of zanamivir in PBS through a second IDC. Each intraduodenal dose was followed with the introduction of a small air bubble (˜10 μL) in the cannula followed by a flush of 125 μL of PBS to ensure the dose was given in full. The volume of PBS used for cannula flush was consistent across the treatment groups. The cannula was tied to prevent the PBS remaining in the cannula from entering the duodenum.
(§3) Blood samples collected via the JVC, approximately 400 μL each, were obtained at 2 min, 5 min, 15 min, 30 min, 60 min, 90 min, and 120 min, with sodium heparin used as an anti-coagulant. Each sample was placed into a chilled tube containing the anticoagulant and kept on ice until centrifugation at 4° C., 3,000×g, for 5 min. The plasma supernatants were stored at −70° C. until LC-MS analysis.
Dosing solution samples were assayed by LC-MS/MS using electrospray ionization. The chromatographic system consisted of Perkin Elmer series 200 micropumps and autosampler equipped with a Waters Atlantic® HILIC Silica 3 μM, 2.1×50 mm column. The mass spectrometer was a PE Sciex API 4000 with electrospray interface in multiple reaction monitoring mode. […] Stock solutions (1 mg/mL zanamivir) were prepared in water. Standards (eight concentrations) were prepared in the appropriate matched matrix (HBSSg or Sprague-Dawley rat plasma containing sodium heparin) and diluted 50-fold with methanol. Experimental samples were treated identically.
Standards and samples were prepared in Sprague Dawley rat plasma containing sodium heparin as an anticoagulant. An eight-point calibration curve was prepared at concentrations of 1000, 750, 500, 250, 100, 50, 25, and 10 ng/mL by serial dilution. Standard samples were treated identically to the study samples.
Plasma samples were extracted by protein precipitation in methanol.
In this example, the bioavailability of Zanamivir was evaluated after intraduodenal doses in male Sprague-Dawley rats. The test compound was dosed at 1.5 mg/animal through intraduodenal routes from glycerol and PBS formulations. Plasma levels were determined by LC-MS/MS analysis. Pharmacokinetic parameters were estimated by a non-compartmental model using WinNonlin v5.2.1 software.

[2] = Varying zanamivir levels at fixed 50 µL Capmul MCM L8, intraduodenal administration; assay type: in vivo, male Sprague-Dawley rats; settings: male, Sprague-Dawley, rat, plasma, ID
Description: as §1
as §2, with “Intravenous” for “Intraduodenal doses composed of 1.5 mg of zanamivir and varying amounts of an enhancer (glycerol or Capmul MCM L8) were injected directly into the duodenum via the IDC. Intravenous”
as §3

Caco-2 cell monolayers = experiment: Unidirectional (A-to-B) permeability of zanamivir across Caco-2 cell monolayers with and without excipients; assay type: in vitro ADME; settings: vs no enhancer
Description: Caco-2 cells were obtained from American Type Culture Collection (Rockville, Md.). Stock cultures were maintained in flasks with DMEM medium supplemented with 10% FBS, 1% non-essential amino acids, 1 mmol/L sodium pyruvate, 100 IU/mL penicillin, and 100 μg/mL streptomycin in a humidified incubator (37° C., 5% CO2). Cells were harvested by trypsinization and seeded at 60,000 cells/cm^2 onto Costar Transwell® 12-well dual-chamber plates with collagen-coated, microporous polycarbonate membranes (1.13 cm^2 insert area, 0.4 μm pore size; Corning Life Sciences, Acton, Mass.) for permeability studies. The culture medium was changed three times per week. […]
Unidirectional (A-to-B) permeability of zanamivir was determined at 15 μg/mL in the absence and presence of varying concentrations of excipients in Caco-2 cell monolayers. […]
Assays were conducted by seeding approximately 68,000 viable Caco-2 cells in 1.12 cm^2 Costar Transwell inserts (12-well format, 0.4 micron pore size PET membranes) in Dulbecco's Modified Eagles Medium (high glucose) supplemented with 20% fetal bovine serum, glutamine, pyruvate, non-essential amino acids, epidermal growth factor, ITS (insulin, transferrin, selenium), and penicillin/streptomycin. […] Transepithelial electrical resistance (TEER) readings were conducted to test the quality of the cell monolayer on the Transwell membrane. […]

[3] = 50 µL PBS, 50 µL blank Capmul MCM L8 -2 hr, mean
[4] = 50 µL PBS, 50 µL blank Capmul MCM L8 -2 hr, individual rats
[5] = 50 µL PBS, 150 µL blank glycerol -2 hr, mean
[6] = 50 µL PBS, 150 µL blank glycerol -2 hr, individual rats
[7] = 100 µL Glycerol, individual rats
[8] = 150 µL Glycerol, individual rats

## CC(=O)NC1C(NC(=N)N)C=C(C(=O)O)OC1C(O)C(O)CO (centres unmarked) [Zanamivir, 5-acetamido-4-guanidino-6-(1,2,3-trihydroxypropyl)-5,6-dihydro-4H-pyran-2-carboxylic acid]
[1]; [3]
  concentration at 0.25 hr: 29.5 ng/mL
  concentration at 0.5 hr: 38.5 ng/mL
  concentration at 0.83 hr: 10.8 ng/mL
  concentration at 1 hr: 32.7 ng/mL
  concentration at 1.5 hr: 38.7 ng/mL
  concentration at 2 hr: 33.8 ng/mL
[1]; [4]
  concentration at 0.5 hr: 38 ng/mL
  concentration at 1 hr: 33 ng/mL
[1]; [5]
  concentration at 0.25 hr: 51.8 ng/mL
  concentration at 0.5 hr: 54.2 ng/mL
  concentration at 0.83 hr: 24.4 ng/mL
  concentration at 1 hr: 38.2 ng/mL
  concentration at 1.5 hr: 40.1 ng/mL
  concentration at 2 hr: 54.1 ng/mL
[1]; [6]
  concentration at 0.5 hr: 50.2 ng/mL
  concentration at 1 hr: 36.4 ng/mL
  concentration at 1.5 hr: 40.1 ng/mL
[1]; 50 µL PBS, 150 µL blank glycerol -2 hr, individual rats, BLOQ = below 10 ng/mL
  concentration at 2 hr: 53.4 ng/mL
[1]; [7]
  concentration at 0.25 hr: 52 ng/mL
  concentration at 0.5 hr: 51.4 ng/mL
  concentration at 1 hr: 38.5 ng/mL
[1]; 100 µL Glycerol, mean
  concentration at 0.25 hr: 56.4 ng/mL
  concentration at 0.5 hr: 48.7 ng/mL
  concentration at 0.83 hr: 57.1 ng/mL
  concentration at 1 hr: 44.4 ng/mL
  concentration at 1.5 hr: 46.9 ng/mL
  concentration at 2 hr: 54.2 ng/mL
[1]; [8]
  concentration at 0.25 hr: 109 ng/mL
  concentration at 0.83 hr: 139 ng/mL
  concentration at 1 hr: 52.5 ng/mL
[1]; 150 µL Glycerol, mean
  concentration at 0.25 hr: 87.7 ng/mL
  concentration at 0.5 hr: 69.2 ng/mL
  concentration at 0.83 hr: 107 ng/mL
  concentration at 1 hr: 49.9 ng/mL
  concentration at 1.5 hr: 36.6 ng/mL
  concentration at 2 hr: 29.3 ng/mL
[2]; 0.75 mg zanamivir in 50 µL Capmul MCM L8
  Tmax: 4.8 min
[2]; 1.5 mg zanamivir in 50 µL Capmul MCM L8
  Tmax: 4.8 min
[2]; 3.0 mg zanamivir in 50 µL Capmul MCM L8
  Tmax: 8.4 min
Caco-2 cell monolayers; optimized concentration of Capmul MCM L8 (0.25%)
  increase in apparent permeability coefficient (Papp): > 5 fold
Caco-2 cell monolayers; optimized concentration of glycerol (5%)
  increase in apparent permeability coefficient (Papp): > 5 fold
